Laboratory results: patent US20220062330A1, “USE OF THIOSULFATE TO POTENTIATE THE ANTI-PATHOGENIC EFFECT OF LACTOBACILLI” (NEXBIOME THERAPEUTICS, priority 2012, published 2022)

Tested on: Candida albicans
Conditions: sodium thiosulfate alone in MRS medium, 1 g/l and 3 g/l, regardless of the concentration studied

## O=S(O)(O)=S [sodium thiosulfate]
  antifungal potential on Candida albicans growth: No antifungal potential
